# Where two headings read alike, the source gives them in different places.
# What was measured:
# [1] = aqueous solution after filtration, not adjusted
# Description: (§1) In a 250 ml round bottom flask 15.5 g (0.482 millimole) of a commercial herbicide, imazaquin* (97.4% pure, having an average molecular weight of 311.4) was suspended in 100 g water. To the suspension, 6.1 g (0.469 millimole) of 98.5% pure AEP was added. […] 2-[4,5-dihydro-4-methyl-4-(methylethyl)-5-oxo-1H-imidazol-2-yl]-3-quinoline e carboxylic acid.
# [2] = Description: A solution containing 25 g of the AEP salt of commercial imazaquin in water was prepared from a suspension of 25 g of imazaquin in 50 g water to which was added a stoichiometric amount of AEP (10.2 g) and an additional 15 g of water. The solution was stirred for 30 minutes after which it was filtered and the pH of the filtrate was adjusted to 7.2.
# solubility in water = test: solubility in water
# Description: Example 1 was repeated, except that 2 g of heavy water replaced 150 g of methanol solvent, 0.3 g of Dicamba replaced 30 g Dicamba and 0.16 g of AEP replaced 15.8 g of AEP.
# as §1
# To a solution containing 13 g (0.1 mole) AEP (98.5% pure) dissolved in 30 g water in a 100 ml round bottom flask was added at 25° C. and with constant agitation, 16.9 g (0.1 mole) of water insoluble solid phosphonomethyl glycine.
# To one liter of water was added 15.42 g of 2,4 D+7.11 g of mecoprop +1.83 g of 90% pure dicamba. After which 13.83 g AEP was added to the mixture. […] To the above solution was added 9 g of polyalkylene oxide modified by polydimethyl siloxane (Silvelt 7607 wetting agent) from Union Carbide. The mixture was stirred and the total weight was adjusted to 3000 g by adding water.
# [3] = system: broad leaf plants and perennial weeds; test: evaluation as aquatic herbicide and broad spectrum growth inhibitor, compared with the isopropyl amine salt of phosphonomethyl glycine; assay type: in vivo
# Description: A suspension of 169 g of phosphonomethyl glycine in 301 g water was prepared and 130 g 98.5% pure AEP was added slowly with stirring until all of the phosphonomethyl glycine dissolved as the AEP salt. The resulting solution, (containing 28% of the active ingredient expressed as the free acid or 49.5% of the active ingredient expressed as the AEP salt) was evaluated as an aquatic herbicide and as a broad spectrum growth inhibitor for broad leaf plants and perennial weeds and compared with the isopropyl amine salt of phosphonomethyl glycine.
compound,measurement,setting,value
"CC(C)C1(C)N=C(c2nc3ccccc3cc2C(=O)O)NC1=O.NCCN1CCCC1=O (stereo not shown) [Example 3, N-pyrrolidonyl ethyl ammonium salt of imazaquin]",pH of the filtrate,[1],7.2
same,storage stability of solution,"[2]; ambient conditions, stored for 6 months",stable under ambient conditions without any precipitation
same,precipitation after cooling and reheating,"[2]; cooling to 0° C., then to room temperature",no precipitation was observed
same,dissolution of freeze-dried solid in water,solubility in water; 0.1 g in 50 g of water,dissolved completely
"COc1c(Cl)ccc(Cl)c1C(=O)O.NCCN1CCCC1=O [Example 1, N-pyrrolidonyl ethyl ammonium salt of 3,6-dichloro-l-methoxy benzoic acid]",solubility in water (in words),solubility in water; water,easily dissolved in 60% water
same,solubility in water (in words),"solubility in water; water, listed as Example 2",easily solubilized in water
COc1c(Cl)ccc(Cl)c1C(=O)O [reference compound],solubility in water (in words),solubility in water,very poor solubility
same,solubility,solubility in water; water,< 1000 µg/mL
"NCCN1CCCC1=O.O=C(O)CNCP(=O)(O)O [Example 5, N-pyrrolidonyl ethyl ammonium salt of phosphonomethyl glycerine]",kill,[3],significantly higher and more permanent kill
same,soluble in water,solubility in water; isolated AEP salt,more than 50%
